Usually inhibition stands for the change of the read-out against control, counted positive when it falls. One may read the IC50 as the concentration that inhibits the measured activity by half.

Data on 19 compounds can be found in patent US5789434A, “Derivatives of substituted 4-biarylbutyric acid as matrix metalloprotease inhibitors” (priority 1995, dated 1998).

Common to all, as to format: biochemical
The target in test [1] is T1, MMP-3 (Homo sapiens, UniProt P08254).
T1 construct: Truncated Prostromelysin-257 was expressed in a soluble form in E.coli; made in house; host or cells: E. coli
Description: Automated MMP Profiling Assay, MMP-3 fluorogenic. The conditions noted are these: for IC50: 96-well automated, P218. An excerpt:
This assay with each invention compound was run with the three enzymes MMP-3, MMP-9 and MMP-2 in parallel as adapted for a 96-well microtitre plate using a Hamilton A® workstation.

For test [2], the target named is T2, MMP-9 (Homo sapiens, UniProt P14780).
T2 construct: from tissue; host or cells: human polymorphonuclear leukocytes (PMN) from whole blood (New York Blood Center), PMA-stimulated supernatant
Description: Automated MMP Profiling Assay, MMP-9 fluorogenic. As to conditions: for IC50: 96-well automated, P218.

The target in test [3] is T3, MMP-2 (Homo sapiens, UniProt P08253).
T3 sequence (P08253 110-660): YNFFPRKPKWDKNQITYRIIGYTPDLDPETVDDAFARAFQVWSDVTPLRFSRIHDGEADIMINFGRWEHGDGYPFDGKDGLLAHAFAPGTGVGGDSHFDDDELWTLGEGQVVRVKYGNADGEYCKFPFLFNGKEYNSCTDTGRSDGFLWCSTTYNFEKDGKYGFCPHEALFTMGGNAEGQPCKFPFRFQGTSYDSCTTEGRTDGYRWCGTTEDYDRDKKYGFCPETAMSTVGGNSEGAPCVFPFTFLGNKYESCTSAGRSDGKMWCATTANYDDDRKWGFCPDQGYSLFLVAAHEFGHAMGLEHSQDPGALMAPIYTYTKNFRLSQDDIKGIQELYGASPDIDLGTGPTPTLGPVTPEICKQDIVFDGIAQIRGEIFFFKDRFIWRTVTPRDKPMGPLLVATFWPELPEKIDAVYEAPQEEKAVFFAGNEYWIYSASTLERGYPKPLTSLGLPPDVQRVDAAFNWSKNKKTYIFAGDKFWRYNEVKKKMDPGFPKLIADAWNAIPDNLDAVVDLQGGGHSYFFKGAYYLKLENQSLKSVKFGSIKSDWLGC
Description: Automated MMP Profiling Assay, MMP-2 fluorogenic. As to conditions: for IC50: 96-well automated, P218, read-out: MMP-2 Fluorogenic IC50 (profiling).

T1 sequence (P08254 100-274 limits assumed): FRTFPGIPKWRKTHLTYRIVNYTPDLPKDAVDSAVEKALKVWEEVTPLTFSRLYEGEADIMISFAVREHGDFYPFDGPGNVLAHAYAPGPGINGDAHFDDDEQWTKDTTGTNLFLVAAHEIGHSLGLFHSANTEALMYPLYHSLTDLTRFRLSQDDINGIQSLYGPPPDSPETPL
T2 sequence (P14780 107-707 limits assumed): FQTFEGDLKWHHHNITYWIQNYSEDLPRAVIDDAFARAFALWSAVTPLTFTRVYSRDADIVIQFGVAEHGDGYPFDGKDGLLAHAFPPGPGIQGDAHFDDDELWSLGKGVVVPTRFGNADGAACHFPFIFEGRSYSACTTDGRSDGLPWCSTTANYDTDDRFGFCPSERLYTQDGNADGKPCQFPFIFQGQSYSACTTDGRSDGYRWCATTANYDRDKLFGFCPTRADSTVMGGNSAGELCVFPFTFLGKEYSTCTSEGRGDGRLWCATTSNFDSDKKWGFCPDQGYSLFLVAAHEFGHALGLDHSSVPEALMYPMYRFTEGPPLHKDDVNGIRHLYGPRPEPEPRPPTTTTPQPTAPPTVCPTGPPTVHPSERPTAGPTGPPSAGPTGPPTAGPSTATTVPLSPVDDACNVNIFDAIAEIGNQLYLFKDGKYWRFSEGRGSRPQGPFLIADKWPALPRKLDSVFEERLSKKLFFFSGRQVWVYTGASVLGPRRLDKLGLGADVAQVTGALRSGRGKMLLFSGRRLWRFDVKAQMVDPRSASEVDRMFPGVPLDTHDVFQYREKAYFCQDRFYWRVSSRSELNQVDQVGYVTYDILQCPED

`CCCCCOc1ccc(-c2ccc(C(=O)C[C@@H](CCCc3ccccc3)C(=O)O)cc2)cc1` [Example 87, 4-[4-(4-pentyloxyphenyl)phenyl]-4-oxo-2R-(3-phenylpropyl)butanoic acid]: the inhibition at 5 µM in test [1] was 8%; in test [2], 0%; in test [3] (at 5 μM), 40%.
For `CC(C)CCOc1ccc(-c2ccc(C(=O)CC(CCCc3ccccc3)C(=O)O)cc2)cc1` (stereo not drawn) [Example 96, [1,1'-Biphenyl]-4-butanoic acid, 4'-(3-methylbutoxy)-γ-oxo-α-(3-phenylpropyl)-], the IC50 in test [1] was 232 nM; in test [2] it was above 1250 nM; in test [3] it was 72 nM.
On the same counts, the results for `COc1ccc(C(=O)OC[C@@H]2CC[C@H](C(=O)c3ccc(-c4ccc(Cl)cc4)cc3)[C@H]2C(=O)O)cc1` (relative stereo) [Example 383, Benzoic acid, 4-methoxy-, [2-carboxy-3-[(4'-chloro[1,1'-biphenyl]-4-yl)carbonyl]cyclopentyl]methyl ester, (1α,2β,3α)-] are 58 nM, 53 nM and 110 nM.
On the same counts, the results for `O=C(CC(CCN1C(=O)c2ccccc2C1=O)C(=O)O)c1ccc(-c2ccc(Cl)cc2)cc1` (racemic) [Example 267, 4-[4-(4-chlorophenyl)phenyl]-4-oxo-2-(2-phthalimidoethyl)butanoic acid] are 15 nM, 3 nM and 2.6 nM.
In the case of `O=C(CC(CCCc1ccccc1)C(=O)O)c1ccc(-c2ccc(OCc3ccc(C(F)(F)F)cc3)cc2)cc1` (stereo not drawn) [Example 104, [1,1'-Biphenyl]-4-butanoic acid, γ-oxo-α-(3-phenylpropyl)-4'-[[4-(trifluoromethyl)phenyl]methoxy]-], the figures for the IC50 in test [1] and in test [3] were 125 nM and 63 nM, respectively. The inhibition at 5 µM in test [2] was found to be 18%.
With `O=C(C[C@H](CS(=O)(=O)c1ccccc1)C(=O)O)c1ccc(-c2ccc(Cl)cc2)cc1` [Example 314, [1,1'-Biphenyl]-4-butanoic acid, 4'-chloro-γ-oxo-α-[(phenylsulfonyl)methyl]-, (S)-], the 50% inhibitory concentration (IC50) worked out at 399 nM in test [1], 555 nM in test [2] and 13 nM in test [3].
On to `COCCOCOC[C@@H]1CC[C@H](C(=O)c2ccc(-c3ccc(Cl)cc3)cc2)[C@H]1C(=O)O` (relative stereo) [Example 371, Cyclopentanecarboxylic acid, 2-[(4'-chloro[1,1'-biphenyl]-4-yl)carbonyl]-5-[[(2-methoxyethoxy)methoxy]methyl]-, (1α,2β,5β)-], for which the half-inhibitory concentration (IC50) in test [1] worked out at 10 nM; in test [2], 26 nM; in test [3], 9.1 nM.
For the compound `CCN(CC)C(=O)c1cccc(SCC(CC(=O)c2ccc(-c3ccc(Cl)cc3)cc2)C(=O)O)c1` (stereo not drawn) [Example 435, [1,1'-Biphenyl]-4-butanoic acid, 4'-chloro-α-[[[3-[(diethylamino)carbonyl]phenyl]thio]methyl]-γ-oxo-], the half-inhibitory concentration (IC50) in test [1] worked out at 39 nM; in test [2], 107 nM; in test [3], 8.1 nM.
Take `COc1cc(CCC(CC(=O)c2ccc(-c3ccc(Cl)cc3)cc2)C(=O)O)cc(OC)c1` (stereo not drawn) [Example 129, [1,1'-Biphenyl]-4-butanoic acid, 4'-chloro-α-[2-(3,5-dimethoxyphenyl)ethyl]-γ-oxo-]: the IC50 in test [1] was found to be 237 nM; in test [2] it was 771 nM; in test [3], 89 nM.
On the same counts, the results for `COC(=O)c1ccccc1SC[C@@H]1CC[C@H](C(=O)c2ccc(-c3ccc(Cl)cc3)cc2)[C@H]1C(=O)O` (relative stereo) [Example 376, Benzoic acid, 2-[[[2-carboxy-3-[(4'-chloro[1,1'-biphenyl]-4-yl)carbonyl]cyclopentyl]methyl]thio]-, 1-methyl ester, (1α,2β,3α)0] are 46 nM, 95 nM and 34 nM.
Take `CC(=O)OC[C@@H]1C[C@@H](C(=O)c2ccc(-c3ccc(Cl)cc3)cc2)[C@H]1C(=O)O` (relative stereo) [Example 397, Cyclobutanecarboxylic acid, 2-[(acetyloxy)methyl]-4-[(4'-chloro[1,1'-biphenyl]-4-yl)carbonyl]-, (1α,2β,4α)-]: the figures for the IC50 in test [1] and in test [3] were 3200 nM and 750 nM, respectively. In addition, the inhibition at 5 µM in test [2] came to 40%.
Consider `CN(C)C(=O)c1ccccc1SCC(CC(=O)c1ccc(-c2ccc(Cl)cc2)cc1)C(=O)O` (stereo not drawn) [Example 436, [1,1'-Biphenyl]-4-butanoic acid, 4'-chloro-α-[[[2-[(dimethylamino)carbony]phenyl]thio]methyl]-γ-oxo-], for which the values for the IC50 in test [1], in test [2] and in test [3] were 158 nM, 519 nM and 286 nM, respectively.
For `O=C(CC(CCCc1ccccc1)C(=O)O)c1ccc(-c2cccnc2)cc1` (stereo not drawn) [Example 70, Benzenepentanoic acid, α-[2-oxo-2-[4-(3-pyridinyl)phenyl]ethyl]-], the inhibition at 5 µM in test [1] came to 44%; in test [2], 7%. In test [3], the IC50 was 1750 nM.
On the same counts, the results for `O=C(O)[C@@H]1[C@@H](C(=O)c2ccc(-c3ccc(Cl)cc3)cc2)[C@H]2C=C[C@@H]1C2` (relative stereo) [Example 177, Bicyclo[2.2.1]hept-5-ene-2-carboxylic acid, 3-[(4'-chloro[1,1'-biphenyl]-4-yl)carbonyl]-, (2-endo-,3-endo)-] are 11%, 30% and 4330 nM.
In the case of `O=C(O)[C@H]1CN(C(=O)OCc2ccccc2)C[C@@H]1C(=O)c1ccc(-c2ccc(Cl)cc2)cc1` (relative stereo) [Example 174, 1,3-Pyrrolidinecarboxylic acid, 4-[(4'-chloro[1,1'-biphenyl]-4-yl)carbonyl]-1,-(phenylmethyl) ester, trans-], the half-inhibitory concentration (IC50) in test [1] came to 144 nM; in test [2] it was 522 nM; in test [3], 56 nM.
The matching figures for `O=C(CC(CCCc1ccccc1)C(=O)O)c1ccc(-c2ccc(OCC3CC3)cc2)cc1` (stereo not drawn) [Example 97, [1,1'-Biphenyl]-4-butanoic acid, 4'-(cyclopropylmethoxy)-γ-oxo-α-(3-phenylpropyl)-]: 153 nM, 229 nM and 48 nM.
For the compound `O=C(CC(CCCc1ccccc1)C(=O)O)c1ccc(-c2ccc(/C=C\c3ccccc3)cc2)cc1` (stereo not drawn) [Example 358, [1,1'-Biphenyl]-4-butanoic acid, 4'-γ-oxo-4'-(2-phenylethenyl)-α-(3-phenylpropyl)-, (Z)-], the inhibition at 5 µM is 39% in test [1] and 4% in test [2]. Further, the IC50 in test [3] amounted to 124 nM.
Consider `O=C(O)[C@H]1[C@H](CN2C(=O)c3cc(Cl)c([N+](=O)[O-])cc3C2=O)CC[C@@H]1C(=O)c1ccc(-c2ccc(Cl)cc2)cc1` (relative stereo) [Example 390, Cyclopentanecarboxylic acid, 2-[(4'-chloro[1,1'-biphenyl]-4-yl)carbonyl]-5-[(5-chloro-1,3-dihydro-6-nitro-1,3-dioxo-2H-isoindol-2-yl)methyl]-, (1α,2β,5β)-], for which the IC50 in test [1] was determined as 10 nM; in test [2], 1.2 nM; in test [3], 15 nM.
On the same counts, the results for `O=C(CC(CC[S+]([O-])c1ccccc1)C(=O)O)c1ccc(-c2ccc(Cl)cc2)cc1` (stereo not drawn) [Example 428, [1,1'-Biphenyl]-4-butanoic acid, 4'-chloro-γ-oxo-α-[2-(phenylsulfinyl)ethyl]-] are 53 nM, 119 nM and 16 nM.
